Test results from patent EP1218402B1 (Dabur Research Foundation, priority 1999, dated 2001).

How the values were obtained:
ECV304 [1] = experiment: MTT assay, inhibition of proliferation of ECV304 endothelial cells (72 hours); format: cell-based, human; settings: concentration causing 50% cytotoxicity
Procedure: 30µl of ECV304 cell suspension (50 x 10^4 cells/ml in RPMI 1640 containing 10% FBS) followed by 150µl of medium was added to the wells of a 96-well tissue culture plate (Nunc, Denmark) and incubated (37°C, 5% CO2) overnight. […] Each concentration was plated in triplicates. 20µl of medium alone was added to control wells. After 72 hours of incubation an MTT assay (Mosmann, 1983) was performed and percentage inhibition in proliferation of treated cells was calculated with respect to control cells.

DU145 = experiment: Cytotoxicity assay for tumor cells, prostate DU145; format: cell-based; settings: concentration causing 50% cytotoxicity
Text: (§1) The cytotoxicity assays for tumor cells have been described in detail in our application No. 09/040,856 filed in US on March 18, 1998. […] Table - I

L132 = experiment: Cytotoxicity assay for tumor cells, lung L132; format: cell-based; settings: concentration causing 50% cytotoxicity
Text: as §1

PA-1 = experiment: Cytotoxicity assay for tumor cells, ovary PA-1; format: cell-based; settings: concentration causing 50% cytotoxicity
Text: as §1

HT-29 = experiment: Cytotoxicity assay for tumor cells, colon HT-29; format: cell-based; settings: concentration causing 50% cytotoxicity
Text: as §1

ECV304 [2] = experiment: Tube-like-structure (TLS) formation of ECV304 cells on Matrigel; format: cell-based, human; settings: 24 - 48 hours, mean of five fields
Procedure: Matrigel (70 µl) was placed into each well of a 96-well culture plate at 4°C and was allowed to polymerize by incubation at 37°C for 30 min. ECV304 (1 x 10^4) cells were seeded on the Matrigel in 200 µl DMEM containing 10% FBS. […] Five different phase-contrast microscopic fields (4X) were viewed and total tube area of the tube-like-structures (TLS) measured using Video Pro 32 Image Analysis system. Percent reduction in total tube area was given as the mean of the data from five fields. Percent inhibition of TLS was calculated with reference to Controls(no drug). Table - III

SMILES | Endothelial ECV304 (ED50) (ECV304 [1]) [µg/mL] | Prostate DU145 (ED50) (DU145) [µg/mL] | Lung L132 (ED50) (L132) [µg/mL] | Ovary PA-1 (ED50) (PA-1) [µg/mL] | Colon HT-29 (ED50) (HT-29) [µg/mL] | % reduction in total tube area at concentration 0.5 µg/ml (ECV304 [2]) [%] | % reduction in total tube area at concentration 2 µg/ml (ECV304 [2]) [%] | % reduction in total tube area at concentration 4 µg/ml (ECV304 [2]) [%]
C=C(C)C1CCC2(C(=O)O)CCC3(C)C(CCC4C5(C)CCC(=NNc6ccccc6)C(C)(C)C5CCC43C)C12 (stereo not shown) [MJ353-RS] | 2.4 | 6.5 | 4.5 | 5 | > 10 |  |  | 
COc1ccc(NNC2CCC3(C)C(CCC4(C)C3CCC3C5C(C(C)C)CCC5(C(=O)O)CCC34C)C2(C)C)cc1 (stereo not shown) [MJ912-RS] | 0.4 | 8.5 | > 4 |  | 0.35 |  |  | 
CC(C)C1CCC2(C(=O)O)CCC3(C)C(CCC4C5(C)CCC(OC(=O)c6cc(F)cc(F)c6)C(C)(C)C5CCC43C)C12 (stereo not shown) [MJ935-RS] | 0.7 | 3.2 | 1.2 |  | > 10 |  |  | 
CC(C)C1CCC2(C(=O)O)CCC3(C)C(CCC4C5(C)CCC(OC(=O)c6ccc(F)cc6F)C(C)(C)C5CCC43C)C12 (stereo not shown) [MJ937-RS] | 0.7 | 2.5 | 1.1 | 1.6 | 1.7 | 16.7 | 21 | 21.7
C=C(C)C1CCC2(C(=O)O)CCC3(C)C(CCC4C5(C)CCC(OC(=O)c6cccc(C(F)(F)F)c6)C(C)(C)C5CCC43C)C12 (stereo not shown) [MJ939-RS] | 0.9 | > 10 | 2.7 | > 4 | > 10 |  |  | 
CC(C)C1CCC2(C(=O)O)CCC3(C)C(CCC4C5(C)CCC(OC(=O)c6ccccc6C(F)(F)F)C(C)(C)C5CCC43C)C12 (stereo not shown) [MJ943-RS] | 2.6 | > 4 | 4 | > 4 | > 10 |  |  | 
CC(C)C1CCC2(C(=O)O)CCC3(C)C(CCC4C5(C)CCC(N=Cc6ccc(F)c(F)c6)C(C)(C)C5CCC43C)C12 (stereo not shown) [MJ998-RS] | 0.35 | 2.2 | 2.5 | 1.3 | 4 | 21.1 | 13.4 | 33.4
CC(C)C1CCC2(C(=O)O)CCC3(C)C(CCC4C5(C)CCC(N=Cc6ccc(F)cc6F)C(C)(C)C5CCC43C)C12 (stereo not shown) [MJ1065-RS] | 2.4 | 2.5 | 3.4 | 1.3 | 4.9 | 23.4 | 16.7 | 46.7
CC(C)C1CCC2(C(=O)O)CCC3(C)C(CCC4C5(C)CCC(=NOCc6ccc([N+](=O)[O-])cc6)C(C)(C)C5CCC43C)C12 (stereo not shown) [MJ1098-RS] | 0.6 | 1.5 | 1.3 | 1.6 | 2.6 | 15 | 7.5 | 10
C=C(C)C1CCC2(C(=O)O)CCC3(C)C(CCC4C5(C)CCC(OC(=O)c6ccc(CCCCC)cc6)C(C)(C)C5CCC43C)C12 (stereo not shown) [MJ1104-RS] | 1.9 | 2 | 5.9 | > 4 | 3.5 |  |  | 
C=C(C)C1CCC2(C(=O)O)CCC3(C)C(CCC4C5(C)CCC(OC(=O)Cc6cc(OC)ccc6OC)C(C)(C)C5CCC43C)C12 (stereo not shown) [MJ1108-RS] | 1.8 | 1 | 4.6 |  | > 10 |  |  | 
